Experimental data reported in patent publication US20260125371A1, “METHOD FOR INHIBITING CLOSTRIDIOIDES DIFFICILE SPORE GERMINATION” (UNIVERSITY OF NOTRE DAME DU LAC, priority 2022, published 2026).
≈ marks a conversion by molar mass, not a printed value. Entries after “also recorded” stand apart in the source; their conditions may differ. Like-named read-outs stand apart in the source and are kept apart here.

Assays:
THP-1 cells = test: Lactate dehydrogenase (LDH) cytotoxicity assay; type: cell-based, human; conditions: for IC50: Homo sapiens
S. aureus = test: MIC against S. aureus strains; type: cell-based; conditions: S. aureus ATCC 29213, 24 h; for MIC: Staphylococcus aureus, ATCC29213, 24 h, read-out: MIC (μg/mL) 24 h
C. difficile ATCC 43255 [1] = test: Determination of minimal-inhibitory concentrations (microdilution), C. difficile ATCC 43255; type: cell-based, Clostridioides difficile; conditions: for MIC C. difficile: Table 1; for MIC: Clostridioides difficile
[2] = Solubility observed during characterisation; conditions: DMSO, room temperature
HepG2 cells = test: XTT cytotoxicity assay; type: cell-based; conditions: Homo sapiens, HepG2, read-out: XTT IC50
C. difficile ATCC 43255 [3] = type: cell-based, Clostridioides difficile
[4] = tested on: Fusobacterium nucleatum HM-992; conditions: cited from earlier work
Gram-negative bacteria = type: cell-based
K. pneumoniae ATCC700603 = test: MIC against K. pneumoniae; type: cell-based; conditions: Klebsiella pneumoniae, ATCC700603
[5] = tested on: extended panel of Gram-positive bacteria; test: MIC range over extended panel of Gram-positive bacteria; type: cell-based
[6] = tested on: Lactobacillus gasseri HM-644; conditions: cited from earlier work
Veillonella sp. HM-49 = conditions: cited from earlier work
A. baumanii ATCC17961 = test: MIC against A. baumanii; type: cell-based; conditions: Acinetobacter baumannii, ATCC17961
E. coli ATCC25922 = test: MIC against E. coli; type: cell-based; conditions: Escherichia coli, ATCC25922
[7] = tested on: Lactobacillus reuteri HM-102; conditions: cited from earlier work
[8] = tested on: Bifidobacterium longum HM-846; conditions: cited from earlier work
[9] = tested on: C. difficile ATCC 43255 vegetative cells; test: Mode of action by scanning electron microscopy (SEM); conditions: 8× MIC for 24 h
E. aerogenes ATCC35029 = test: MIC against E. aerogenes; type: cell-based; conditions: Klebsiella aerogenes, ATCC35029
[10] = tested on: Bacteroides fragilis HM-709; conditions: cited from earlier work
C. difficile ATCC 43255 [11] = test: Minimal-bactericidal concentration (MBC); type: cell-based, Clostridioides difficile
[12] = tested on: Clostridioides difficile infection; conditions: CDI patients; cited from earlier work
P. aeruginosa ATCC27853 = test: MIC against P. aeruginosa; type: cell-based; conditions: Pseudomonas aeruginosa, ATCC27853
[13] = C. difficile ATCC 43255, 48-h incubation
[14] = ATCC43255, 24 h, C. difficile ATCC 43255, 24 h, read-out: MIC (μg/mL) 24 h
[15] = ATCC43255, Table 1, strain ATCC 43255, read-out: MIC C. difficile
[16] = THP-1, 24 h, read-out: LDH (IC50)

Row | SMILES | LDH (IC50) (THP-1 cells; THP-1 cells, 24 h) [µg/mL] | MIC (μg/mL) 24 h (S. aureus) [µg/mL] | MIC (μg/mL) 48 h (C. difficile ATCC 43255 [1]; [13]) [µg/mL] | MIC (μg/mL) 24 h (C. difficile ATCC 43255 [1]; C. difficile ATCC 43255, 24 h) [µg/mL] | MIC C. difficile (C. difficile ATCC 43255 [1]; strain ATCC 43255) [µg/mL] | MIC (C. difficile ATCC 43255 [1]; [14]) [µg/mL] | MIC (C. difficile ATCC 43255 [1]; [15]) [µg/mL] | other results
1 | Oc1ccc(-c2nc(-c3ccc(Oc4ccc(C(F)(F)F)cc4)cc3)no2)cc1 [Compound 9] | 17 ± 1 | 1 (≈ 2.51 µM) | 2 (≈ 5.02 µM) | 2 (≈ 5.02 µM) | 2 (≈ 5.02 µM) |  |  | 
2 | Oc1ccc(-c2nc(-c3ccc(Oc4ccc(C(F)(F)F)cc4)cc3)no2)cc1F [Compound 10] | 5.2 ± 0.02 | 2 (≈ 4.8 µM) | 4 (≈ 9.61 µM) | 4 (≈ 9.61 µM) | 4 (≈ 9.61 µM) |  |  | 
3 | Oc1c(F)cc(-c2nc(-c3ccc(Oc4ccc(C(F)(F)F)cc4)cc3)no2)cc1F [Compound 11] | 18 ± 2 | 2 (≈ 4.6 µM) | 4 (≈ 9.21 µM) | 4 (≈ 9.21 µM) | 4 (≈ 9.21 µM) |  |  | 
4 | O=[N+]([O-])c1cc(-c2nc(-c3ccc(Oc4ccc(C(F)(F)F)cc4)cc3)no2)cnc1O [Compound 16] | 37 ± 11 | 8 (≈ 18 µM) | 2 (≈ 4.5 µM) | 2 (≈ 4.5 µM) | 2 (≈ 4.5 µM) |  |  | 
5 | Cl.NCc1ccc(-c2nc(-c3ccc(Oc4ccc(C(F)(F)F)cc4)cc3)no2)cc1 [Compound 17, (4-(3-(4-(4-(Trifluoromethyl)phenoxy)phenyl)-1,2,4-oxadiazol-5-yl)phenyl) methanamine hydrochloride salt] |  |  |  |  |  | 4 | 4 | IC50 (THP-1 cells; THP-1 cells, 24 h, read-out: LDH (IC50)): 4.4 ± 0.7 µg/mL; MIC (S. aureus): 2 to 4 µg/mL
6 | O=[N+]([O-])c1c[nH]nc1-c1nc(-c2ccc(Oc3ccc(C(F)(F)F)cc3)cc2)no1 [Compound 30] | 21 ± 5 | 2 (≈ 4.79 µM) | 4 (≈ 9.59 µM) | 4 (≈ 9.59 µM) | 4 (≈ 9.59 µM) |  |  | 
7 | Oc1ccc(-c2nc(-c3ccc(OC4CCCC=C4Br)cc3)no2)cc1 (stereo not drawn) [Compound 99, 4-(3-(4-((2-Bromocyclohex-2-en-1-yl)oxy)phenyl)-1,2,4-oxadiazol-5-yl)phenol] |  |  |  |  |  | 2 (≈ 4.84 µM) | 2 (≈ 4.84 µM) | IC50 (THP-1 cells; [16]): 8.4 ± 0.3 µg/mL (≈ 20.3 µM); MIC (S. aureus): 4 µg/mL (≈ 9.68 µM); MIC (C. difficile ATCC 43255 [1]; ATCC43255, 48 h, C. difficile ATCC 43255, 48-h incubation, read-out: MIC (μg/mL) 48 h): 2 µg/mL (≈ 4.84 µM)
8 | O=[N+]([O-])c1c[nH]nc1-c1nc(-c2ccc3oc4ccccc4c3c2)no1 [Compound 118, 3-(Dibenzo[b,d]furan-2-yl)-5-(4-nitro-1H-pyrazol-3-yl)-1,2,4-oxadiazole] |  |  |  |  |  | 4 (≈ 11.5 µM) | 4 (≈ 11.5 µM) | IC50 (THP-1 cells; [16]): 9.8 ± 3.3 µg/mL (≈ 28.2 µM); MIC (S. aureus): 2 µg/mL (≈ 5.76 µM)
9 | Cl.O=[N+]([O-])c1c[nH]c(-c2nc(-c3ccc(CN4CCCC4)cc3)no2)n1 [Compound 130] |  |  |  |  |  | > 128 |  | solubility [2]: barely soluble in DMSO; MIC (μg/mL) 48 h (C. difficile ATCC 43255 [1]; C. difficile ATCC 43255, 48-h incubation, Hydrochloride): >128 µg/mL
10 | O=[N+]([O-])c1cnc(-c2nc(-c3ccc(OC4CCC4)cc3)no2)[nH]1 [Compound 131, 3-(4-Cyclobutoxyphenyl)-5-(5-nitro-1H-imidazol-2-yl)-1,2,4-oxadiazole] |  |  |  |  |  | 0.5 (≈ 1.53 µM) | 0.25 (≈ 0.764 µM) | IC50 (HepG2 cells): 41.9 ± 4.5 µg/mL (≈ 128 µM); IC50 (THP-1 cells; [16]): > 128 µg/mL; IC50 (THP-1 cells; THP-1, read-out: toxicity IC50 (LDH assay)): > 50 µg/mL
11 | CN[C@H](CC(C)C)C(=O)N[C@H]1C(=O)N[C@@H](CC(N)=O)C(=O)N[C@H]2C(=O)N[C@H]3C(=O)N[C@H](C(=O)N[C@H](C(=O)O)c4cc(O)cc(O)c4-c4cc3ccc4O)[C@H](O)c3ccc(c(Cl)c3)Oc3cc2cc(c3O[C@@H]2O[C@H](CO)[C@@H](O)[C@H](O)[C@H]2O[C@H]2C[C@](C)(N)[C@H](O)[C@H](C)O2)Oc2ccc(cc2Cl)[C@H]1O [VAN, vancomycin] |  |  |  |  |  |  |  | increase in MIC on serial passage (C. difficile ATCC 43255 [3]): 16 fold; MIC [4]: 0.25 µg/mL (≈ 0.173 µM); activity against Gram-negative organisms (Gram-negative bacteria): no activity; MIC (K. pneumoniae ATCC700603): > 128 µg/mL; activity against Gram-positive bacteria [5]: has activity; MIC [6]: 1 µg/mL (≈ 0.69 µM); MIC (Veillonella sp. HM-49): >32 µg/mL; MIC (A. baumanii ATCC17961): > 128 µg/mL; MIC (E. coli ATCC25922): > 128 µg/mL; MIC [7]: >32 µg/mL; MIC [8]: 0.25 µg/mL (≈ 0.173 µM); effect on vegetative cells by SEM [9]: damage the cell wall; also recorded: same effect; MIC (E. aerogenes ATCC35029): > 128 µg/mL; MIC [10]: 16 µg/mL (≈ 11 µM); bactericidal or bacteriostatic (C. difficile ATCC 43255 [11]): bacteriostatic; recurrence of infection [12]: 24%; MIC (P. aeruginosa ATCC27853): > 128 µg/mL
